Consider 14 compounds from PubChem BioAssay (NCI).

Among the test systems are HL-60(TB) leukemia; HCC-2998 colon; SK-MEL-2 melanoma; SF-295 CNS; SW-620 colon; EKVX NSCLC; OVCAR-3 ovarian; SK-MEL-5 melanoma; UO-31 renal.
Holding throughout (test): growth of human tumour cells (NCI), 48 h

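Assay format: 96-well plates, 48-hour exposure. GI50 marks 50% less growth. TGI: concentration producing complete growth inhibition.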

As to `CC1=C(C(=O)Nc2ccccc2)C(c2ccc3c(c2)OCO3)C(C(=O)Nc2ccccc2)=C(C)N1`, the TGI with HL-60(TB) leukemia was 42.4 µM; with HCC-2998 colon, > 100 µM; in the assay on SK-MEL-2 melanoma, 74.5 µM; in the assay with SF-295 CNS, > 100 µM; in the assay on SW-620 colon, 12.3 µM; in the assay with EKVX NSCLC, > 100 µM. In addition, the TGI with OVCAR-3 ovarian, in the assay on SK-MEL-5 melanoma and in the assay on UO-31 renal was > 100 µM throughout.
On to `Cc1cc(C)nc(NS(=O)(=O)c2ccc(Nc3c4ccccc4nc4c(C(=O)Nc5ccc(S(N)(=O)=O)cc5)cccc34)cc2)n1`, for which the TGI with SK-MEL-2 melanoma is > 100 µM; in the assay on SF-295 CNS, > 100 µM; with SW-620 colon it was > 100 µM; in the assay with EKVX NSCLC, 98.2 µM; in the assay with OVCAR-3 ovarian, > 100 µM; in the assay with SK-MEL-5 melanoma it was > 100 µM. Besides, the TGI in the assay with UO-31 renal is > 100 µM.
Take `C=C(c1ccccc1N)[C@@]1(O)C[C@H](/C(=C\C)CO)C[C@@H]1NCc1ccccc1`: the TGI in the assay with HL-60(TB) leukemia was 29.9 µM; in the assay on HCC-2998 colon, 30.9 µM; with SK-MEL-2 melanoma, 39.2 µM; in the assay on SF-295 CNS it was 30.5 µM; with SW-620 colon, 50 µM; with EKVX NSCLC it was > 100 µM. Moreover, the figures for the TGI in the assay on OVCAR-3 ovarian, in the assay with SK-MEL-5 melanoma and in the assay with UO-31 renal were 45.8 µM, 32.8 µM and 42.3 µM, respectively.
For `C1CCC([PH+](C2CCCCC2)C2CCCCC2[PH+](C2CCCCC2)C2CCCCC2)CC1.[Au].[CH-]1CCCCC1C1CCCC[N-]1` (stereo not drawn), the GI50 was 0.272 µM in the assay on HL-60(TB) leukemia; 0.351 µM in the assay with SK-MEL-2 melanoma; 0.256 µM with SF-295 CNS; 0.286 µM with OVCAR-3 ovarian; 0.179 µM with SK-MEL-5 melanoma; 1.36 µM in the assay with UO-31 renal. Besides, the TGI in the assay on HL-60(TB) leukemia came out at 0.826 µM; in the assay on SK-MEL-2 melanoma, 1.52 µM; in the assay on SF-295 CNS, 0.901 µM; with OVCAR-3 ovarian, 1.1 µM; with SK-MEL-5 melanoma it was 0.332 µM; in the assay on UO-31 renal, 2.69 µM.
As to `COc1c(OC(C)=O)ccc(/C=C2\N=C(C)OC2=O)c1[N+](=O)[O-]`, the TGI with HL-60(TB) leukemia, in the assay on HCC-2998 colon, with SK-MEL-2 melanoma, with SF-295 CNS, in the assay on SW-620 colon and in the assay on SK-MEL-5 melanoma was > 100 µM throughout. Moreover, the TGI in the assay on UO-31 renal was > 100 µM.
Regarding `NC(N)=NS(=O)(=O)c1ccc(NC(=O)c2cccc3c(Nc4ccc(S(=O)(=O)N=C(N)N)cc4)c4ccc(Cl)cc4nc23)cc1`, the TGI in the assay on HCC-2998 colon, in the assay with SK-MEL-2 melanoma, in the assay on SF-295 CNS, in the assay on SW-620 colon, in the assay with EKVX NSCLC and with OVCAR-3 ovarian was > 100 µM throughout. For the same compound, the TGI in the assay with SK-MEL-5 melanoma and in the assay on UO-31 renal was > 100 µM throughout.
Regarding `O=C1C2=C(c3ccccc31)C(c1cccc(Cl)c1)NC(=S)N2` (stereo not drawn), the TGI in the assay on HL-60(TB) leukemia, in the assay with HCC-2998 colon, in the assay on SK-MEL-2 melanoma, in the assay on SF-295 CNS, in the assay on SW-620 colon and with EKVX NSCLC was > 100 µM each time. Further, the TGI in the assay with OVCAR-3 ovarian, in the assay on SK-MEL-5 melanoma and in the assay on UO-31 renal was > 100 µM in each case.
As for `O/N=C1/C(=C/c2ccc(F)cc2)CCCC1C(NO)c1ccc(F)cc1` (stereo not drawn), the TGI with HL-60(TB) leukemia was 49.1 µM; in the assay with HCC-2998 colon it was > 100 µM; in the assay with SK-MEL-2 melanoma, > 100 µM; with SF-295 CNS it was > 100 µM; in the assay on SW-620 colon, > 100 µM; with EKVX NSCLC, > 100 µM. For the same compound, the TGI in the assay on OVCAR-3 ovarian came to 72.8 µM; in the assay on SK-MEL-5 melanoma it was 39.2 µM; with UO-31 renal, 72.5 µM.
As to `Cc1ccc(-c2c(C#N)c(N)nc(N3CCOCC3)c2C#N)o1`, the GI50 in the assay with HL-60(TB) leukemia is 46.3 µM; with SK-MEL-2 melanoma, 78.8 µM; with SW-620 colon it was > 100 µM; in the assay on EKVX NSCLC, 21.2 µM; with SK-MEL-5 melanoma, 40.5 µM; in the assay on UO-31 renal, 21.2 µM. Also, the TGI was > 100 µM in the assay with HL-60(TB) leukemia; > 100 µM in the assay with SK-MEL-2 melanoma; > 100 µM in the assay on SW-620 colon; > 100 µM with EKVX NSCLC; > 100 µM in the assay on SK-MEL-5 melanoma; 84 µM in the assay on UO-31 renal.
`CCOC(=O)c1cccc(=O)c(C(=O)OCC)c1`: the TGI with HL-60(TB) leukemia is 62.1 µM; in the assay with HCC-2998 colon, > 100 µM; in the assay on SK-MEL-2 melanoma, > 100 µM; in the assay with SW-620 colon, > 100 µM; with EKVX NSCLC, > 100 µM; in the assay on OVCAR-3 ovarian, > 100 µM. Besides, the TGI with SK-MEL-5 melanoma and in the assay with UO-31 renal was > 100 µM throughout.
With `S=c1[nH]nc(COc2ccc(Cl)cc2)o1`, the TGI is > 100 µM with HL-60(TB) leukemia; > 100 µM with HCC-2998 colon; > 100 µM in the assay with SF-295 CNS; 29.8 µM in the assay on SW-620 colon; > 100 µM in the assay with EKVX NSCLC; > 100 µM in the assay with OVCAR-3 ovarian. For the same compound, the TGI with SK-MEL-5 melanoma and in the assay with UO-31 renal was > 100 µM throughout.
In the case of `N#Cc1ccccc1NC(=O)C(=O)C(C(=O)c1ccccc1-c1ccccc1)C1OC(=O)c2ccccc21` (stereo not drawn), the TGI in the assay with HL-60(TB) leukemia was 50.2 µM; with HCC-2998 colon, 29.2 µM; in the assay with SK-MEL-2 melanoma, 32.1 µM; in the assay on SF-295 CNS it was 58.3 µM; in the assay on SW-620 colon it was 75.5 µM; with EKVX NSCLC, 36 µM. Also, the TGI in the assay with OVCAR-3 ovarian was 32.7 µM; in the assay on SK-MEL-5 melanoma, > 100 µM.
For `CC(=O)[CH-]C(=O)c1ccccc1.CC(=O)[CH-]C(=O)c1ccccc1.CCN(CC)CC[O-].CCN(CC)CC[O-].Cl.[Ti+4]`, the GI50 was 19.6 µM in the assay on HL-60(TB) leukemia; 23.1 µM in the assay on HCC-2998 colon; 26.9 µM in the assay on SK-MEL-2 melanoma; 37.9 µM in the assay with SF-295 CNS; 45.9 µM with SW-620 colon; 28.3 µM in the assay on OVCAR-3 ovarian. The GI50 was 27.9 µM in the assay with SK-MEL-5 melanoma and 21.1 µM with UO-31 renal. In addition, the TGI in the assay on HL-60(TB) leukemia is 61.2 µM; in the assay with HCC-2998 colon, 76.6 µM; in the assay with SK-MEL-2 melanoma, 93.9 µM; in the assay with SF-295 CNS, 86.7 µM; in the assay on SW-620 colon, > 100 µM; with OVCAR-3 ovarian, > 100 µM. The results for the TGI in the assay with SK-MEL-5 melanoma and in the assay on UO-31 renal were > 100 µM and 74.8 µM, respectively.
With `CCOC(=O)Cc1c(Cc2[nH]c(C(=O)OCc3ccccc3)c(CC(=O)OCC)c2CC(=O)OCC)[nH]c(C(=O)OCc2ccccc2)c1CC(=O)OCC`, the TGI in the assay on HL-60(TB) leukemia, in the assay on SF-295 CNS, in the assay with SW-620 colon, with OVCAR-3 ovarian, in the assay with SK-MEL-5 melanoma and in the assay on UO-31 renal was > 100 µM in each case.
